The nature of the data set: In vitro release of paclitaxel from triblock copolymer gel into PBS release media. The conditions noted are these: 23% by weight aqueous triblock copolymer of Example 1, paclitaxel approx. 2.0 mg/ml; PBS pH 7.4 with 2.4% Tween-80 and 4% Cremophor EL, 37° C.; HPLC. The data set is classed as physicochemical. The procedure:
To a 23% by weight aqueous solution of the triblock copolymer of Example 1 is added sufficient paclitaxel to provide approximately 2.0 mg/ml of drug. A 2 ml sample of this solution is put onto a watchglass and equilibrated at 37° C. Since the temperature is greater than the gelation temperature of the copolymer, a gel formed on the watchglass. The watchglass is placed in a 200 ml beaker containing release media comprised of 150 ml of PBS (pH 7.4) containing 2.4% by weight Tween-80 and 4% by weight Cremophor EL equilibrated at 37° C. The solution in the beaker was stirred, and the top of the beaker is sealed to prevent evaporation. The whole assembly was placed into an incubator at 37° C. The release study is performed in triplicate. At different time periods a 5 ml aliquot of the release media was taken and analyzed for […]. The PBS solution was replaced with fresh PBS after each aliquot removal. Samples were collected at 1, 2, 4, 8, 18, and 24 hours, and thereafter at 24 hour intervals, and analyzed by HPLC. The release profile of […] from the gel is determined. The gel formulation provides excellent control over the release of the paclitaxel for approximately 50 days.

For `CC(=O)O[C@H]1C(=O)[C@@]2(C)[C@H]([C@H](OC(=O)c3ccccc3)[C@]3(O)C[C@H](OC(=O)[C@H](O)[C@@H](NC(=O)c4ccccc4)c4ccccc4)C(C)=C1C3(C)C)[C@]1(OC(C)=O)CO[C@@H]1C[C@@H]2O` [paclitaxel], the “duration of controlled release from the gel formulation” value is on record as “approximately 50 days”.

The values above are taken from patent publication US20060235084A1, “PEG-polyacetal diblock and triblock copolymers and pharmaceutical compositions” (priority 2005, published 2006).
